Measured values taken from ChEMBL document CHEMBL3792353, “Differentiation of ROMK potency from hERG potency in the phenacetyl piperazine series through heterocycle incorporation” (Bioorg Med Chem Lett, 2016).

Legend:
Settings in all cases: in vivo
Rattus norvegicus = assay: Dose normalized AUC in Sprague-Dawley rat at 2 mg/kg, po; type: ADME, organism-based
[1] = Half life of compound in Sprague-Dawley rat at 1 mg/kg, iv and 2 mg/kg, po; type: ADME, organism-based
[2] = Oral bioavailability in Sprague-Dawley rat at 2 mg/kg; type: ADME, organism-based
[3] = Half life of compound in beagle dog at 0.5 mg/kg, iv; type: ADME, organism-based, Canis lupus familiaris
Rhesus monkey = assay: Dose normalized AUC in rhesus monkey at 0.5 mg/kg, po; type: ADME, organism-based, Macaca mulatta
[4] = Half life of compound in rhesus monkey at 0.25 mg/kg, iv and 0.5 mg/kg, po; type: ADME, organism-based, Macaca mulatta
[5] = Oral bioavailability in rhesus monkey at […]; type: ADME, organism-based, Macaca mulatta
Canis familiaris = assay: fCmax in vagotomized beagle dog at 10 mg/kg, iv administered as cumulative dose; type: ADME, organism-based, Canis lupus familiaris

Row | SMILES | AUC/dose (Rattus norvegicus) [µM·kg·h/mg] | half-life [1] [min] | bioavailability [2] [%] | half-life [3] [min] | AUC/dose (Rhesus monkey) [µM·kg·h/mg] | half-life [4] [min] | bioavailability [5] [%] | fCmax (Canis familiaris) [µM]
1 | O=C1OCc2cc(CCN3CCN(C(=O)Cc4ccc(-n5cnnn5)cc4)CC3)ccc21 | 0.067 | 9.6 |  |  |  |  |  | 
2 | Cc1c(CCN2CCN(C(=O)Cc3ccc(-n4cnnn4)nc3)CC2)ccc2c1COC2=O | 0.84 | 26.4 | 38 | 78 | 0.001 | 66 | < 1 | 21
3 | Cc1cc(-n2cnnn2)cnc1CC(=O)N1CCN(CCc2ccc3c(c2C)COC3=O)CC1 | 0.35 | 19.8 | 18 |  |  |  |  | 
4 | Cc1c(C(F)CN2CCN(C(=O)Cc3ccc(-n4cnnn4)nc3)CC2)ccc2c1COC2=O (racemic) | 0.31 | 21 | 46 |  |  |  |  | 
5 | Cc1c(C(C)CN2CCN(C(=O)Cc3ccc(-n4cnnn4)nc3)CC2)ccc2c1COC2=O (racemic) | 0.45 | 57.6 | 25 |  |  |  |  | 
